According to US4339442A, “Gynosaponins, their use and a process for preparing the same” (priority 1980, dated 1982):

What was measured:
Type in all cases: cell-based, male wister rats
fat cells [1] = assay: Decomposition by adrenalin of the fat in the fat cells; settings: adrenalin 1 μg/ml + saponin 20 μg/ml, 37° C., two hours
Method: A small section was prepared from 4 g of the fat tissue, and placed in 10 ml. of Krebs-Ringer bicarbonate buffer containing 0.4 g of albumin, 10 mg of collagenase and 5 mg of glucose, and having a pH value of 7.4. […] Added into the fat cell were 10 ml. of the aforesaid buffer (pH 7.4), and the solution was carefully stirred to wash the fat cell, followed by centrifugal separation at 300 rpm for 30 seconds. This procedure was repeated twice, whereby the fat cells were washed perfectly, and these fat cells were used for the tests.
The fat cells obtained by treating with collagenase were suspended in Krebs-Ringer phosphate buffer (KRP) having a pH value of 7.4. Placed into a test tube were 0.3 ml. of the solution thus obtained, and containing 100 mg of fat cells, 0.1 ml. of an adrenalin solution containing 1 μg of adrenalin, 0.1 ml. of a saponin solution containing 20 μg of saponin, and 0.5 ml. of a 5% albumin solution in KRP, and having a pH value adjusted to 7.4. […] More specifically, 3 ml. of Dole's extract were placed in the reaction system, and after they were shaked for five minutes, 3 ml. of heptane were dispensed, and 1 ml. of a thymol blue solution was added thereinto. The resulting solution was titrated with a 0.008 N aqueous solution of sodium hydroxide, while it was being stirred with nitrogen, and the amount of the resulting free fatty acid was determined in accordance with a calibration curve.
The rate of inhibition was obtained in accordance with the equation shown at (1) above.

fat cells [2] = assay: Decomposition of the fat in the fat cell by ACTH; settings: ACTH 1 μg/ml + saponin 20 μg/ml, 37° C., two hours
Method: (§1) Fat tissues were separated from the epididymides of male wister rats weighing 150 to 180 g each, and fat cells were obtained therefrom in accordance with the Rodbell's method [M. Rodbell, J. Biol. Chem., 239, 375 (1964)]. A small section was prepared from 4 g of the fat tissue, and placed in 10 ml. of Krebs-Ringer bicarbonate buffer containing 0.4 g of albumin, 10 mg of collagenase and 5 mg of glucose, and having a pH value of 7.4. It was heated at 37° C. for 50 minutes, and subjected to centrifugal separation at 300 rpm, whereby a floating fat cell layer was separated. Added into the fat cell were 10 ml. of the aforesaid buffer (pH 7.4), and the solution was carefully stirred to wash the fat cell, followed by centrifugal separation at 300 rpm for 30 seconds. This procedure was repeated twice, whereby the fat cells were washed perfectly, and these fat cells were used for the tests.
The fat cells obtained by treating with collagenase were suspended in Krebs-Ringer bicarbonate buffer (KRB) having a pH value of 7.4. Placed into a test tube were 0.3 ml. of the solution thus obtained (containing 100 mg of fat cells), 0.1 ml. of ACTH solution containing 1 μg of ACTH, 0.1 ml. of each saponin solution containing 500 μg of saponin, and 0.3 ml. of a 5% alubumin solution in KRB, and having a pH value adjusted to 7.4. They were heated at 37° C. for two hours, and the amount of the resulting free fatty acid was determined in accordance with the Dole's method [V. P. Dole, J. Biol. Chem., 35, 150 (1958)].
Namely, 3 ml. of Dole's extract were separated into the reaction system, and 1 ml. of a thymol blue solution was added thereinto. Nitrogen was blown into the resulting solution, and the solution was titrated with a 0.008 N aqueous solution of sodium hydroxide, while it was being stirred. The amount of the resulting free fatty acid was determined in accordance with a calibration curve.
The rate of inhibition against fat decomposition was obtained in accordance with the following equation: [formula] wherein A stands for the amount of the free fatty acid formed by addition of ACTH along in the amount of 1 μg/ml.; and B stands for the amount of the free fatty acid formed by addition of ACTH and saponin in the amount of 1 μg/ml. and 20 μg/ml., respectively.

fat cells [3] = assay: Synthesis of fat from glucose in fat cells; settings: 20 μg/ml; for Power for synthesis of neutral fat from glucose: 37° C., half an hour
Method: as §1
^14 C-glucose having its carbon atoms marked with radioactivity was reacted upon fat cells, and a Geiger count was read to determine the amount of the glucose participating in the fat synthesis and incorporated into the fat cells as a neutral fat, whereby gynosaponins were tested for their effects on the power of the glucose for fat synthesis.
More specifically, the fat cells obtained by treating with collagenase were suspended in KRB, and 0.35 ml. of the resulting solution containing 100 mg of fat cells was placed into a test tube with 0.1 ml. of each saponin solution containing 20 μg of saponin, 0.5 ml. of a 5% albumin solution in KRB, containing 10 mM glucose and having a pH value of 7.4, and 0.05 ml. of a ^14 C-glucose solution which was a 0.5 μCi KRP solution having a pH value of 7.4 and containing 10 mM glucose. They were heated at 37° C. for half an hour, and after 5 ml. of Dole's extract were added and the whole was shaked for five minutes, 3 ml. of heptane and 2 ml. of water were added, and the whole was shaked for five minutes. 3 ml. of a heptane layer were separated, and after an alkaline ethanol solution (0.5 N sodium hydroxide solution, 50 % ethanol solution) was added in the amount of 3 ml., the whole was shaked for five minutes. Then, 1 ml. of an ethanol layer was separated, and 10 ml. of a toluene scintillation solution were added thereinto, followed by determination according to the method of Skipski et al. [Biochem. Biophys. Acta, 106, 386 (1965)].

[4] = Rattus norvegicus, 2 h, read-out: Rate of inhibition

Row | Compound | inhibition at 20 µg/mL (fat cells [1]; [4]) [%] | Free fatty acid formed by decomposition of fat (fat cells [1]) [μ Eq/g] | Free fatty acid formed by decomposition of fat (fat cells [2]) [μ Eq/g] | inhibition at 20 µg/mL (fat cells [2]; [4]) [%] | Power for synthesis of neutral fat from glucose (fat cells [3]) | activation at 20 µg/mL (fat cells [3]; Rattus norvegicus, 0.5 h, none = 100, read-out: Rate of promotion) [%] | Rate of inhibition (fat cells [1]) [%] | Rate of inhibition (fat cells [2]) [%] | Rate of promotion (fat cells [3]; none = 100) [%]
1 | CC(C)=CCC[C@](C)(O[C@@H]1O[C@H](CO[C@@H]2O[C@@H](C)[C@H](O)[C@@H](O)[C@H]2O)[C@@H](O)[C@H](O)[C@H]1O)[C@H]1CC[C@]2(C)[C@@H]1[C@H](O)C[C@@H]1[C@@]3(C)CC[C@H](O[C@@H]4O[C@H](CO)[C@@H](O)[C@H](O)[C@H]4O[C@@H]4O[C@H](CO)[C@@H](O)[C@H](O)[C@H]4O)C(C)(C)[C@@H]3CC[C@]12C [gynosaponin E, 20S-Protopanaxadiol-3-O-[β-D-glucopyranosyl (1→2)-β-D-glucopyranoside]-20-O-[α-L-rhamnopyranosyl (1→6)-β-D-glucopyranoside]] | 33 | 9.4 | 5.9 | 30 | 10,248 cpm/g | 48 | – | – | –
2 | 20S-Protopanaxadiol-3-O-{[β-D-glucopyranosyl (1→2)-α-L-rhamnopyranosyl (1→6)]-β-D-glucopyranoside} [progynosapogenin A--AH] | – | 12.4 | 6.3 | – | 10,550 cpm/g | – | 12 | 25 | 49
